# Species: Rattus norvegicus
# Assay: Open TG-GATES - Regimen: Single
# Format: toxicity, organism-based, Sprague-Dawley
# Parameters: regimen Single, gender Male, age 6 weeks
# Details: in vivo, po, 120 mg/kg, route gavage, dose level Middle; for APTT / Bas / Eos / Fbg / Hb / Ht / Lym / MCH / MCHC / MCV / Mono / Neu / PT / Plat / RBC / Ret / WBC: tissue Blood; for KIDNEY_L / KIDNEY_R / KIDNEY_TOTAL: tissue Kidney; for LIVER: tissue Liver; for A/G / ALP / ALT / AST / BUN / CRE / Ca / Cl / DBIL / GLC / IP / K / LDH / Na / PL / RALB / TBIL / TC / TG / TP / gamma-GTP: tissue Plasma
compound,measurement,setting,value
COc1ccc(Cc2nccc3cc(OC)c(OC)cc23)cc1OC [PAPAVERINE],TERMINAL_BW,3 h,221.6 g
same,APTT,3 h,22.7 s
same,Bas,3 h,0%
same,Eos,3 h,1%
same,Fbg,3 h,312.8 mg/dL
same,Hb,3 h,13.4 g/dL
same,Ht,3 h,40.5%
same,Lym,3 h,77.6%
same,MCH,3 h,20.9 pg
same,MCHC,3 h,33.2%
same,MCV,3 h,63 fL
same,Mono,3 h,2.4%
same,Neu,3 h,17.8%
same,PT,3 h,15.9 s
same,Plat,3 h,108.5 x10_4/uL
same,RBC,3 h,641.8 x10_4/ul
same,Ret,3 h,7.3%
same,WBC,3 h,88.5 x10_2/uL
same,KIDNEY_L,3 h,0.9 g
same,KIDNEY_R,3 h,1 g
same,KIDNEY_TOTAL,3 h,1.9 g
same,LIVER,3 h,9.5 g
same,A/G,3 h,1.2
same,ALP,3 h,1542 IU/L
same,ALT,3 h,43.6 IU/L
same,AST,3 h,78.6 IU/L
same,BUN,3 h,11.4 mg/dL
same,CRE,3 h,0.1 mg/dL
same,Ca,3 h,11 mg/dL
same,Cl,3 h,107.8 meq/L
same,DBIL,3 h,0 mg/dL
same,GLC,3 h,181.4 mg/dL
same,IP,3 h,8.7 mg/dL
same,K,3 h,4 meq/L
same,LDH,3 h,162.8 IU/L
same,Na,3 h,141.8 meq/L
same,PL,3 h,128.4 mg/dL
same,RALB,3 h,2.9 g/dL
same,TBIL,3 h,0.008 mg/dL
same,TC,3 h,74.6 mg/dL
same,TG,3 h,43.8 mg/dL
same,TP,3 h,5.3 g/dL
same,gamma-GTP,3 h,2 IU/L
same,TERMINAL_BW,6 h,219.8 g
same,APTT,6 h,20.9 s
same,Bas,6 h,0%
same,Eos,6 h,0.8%
same,Fbg,6 h,317.8 mg/dL
same,Hb,6 h,13 g/dL
same,Ht,6 h,39.5%
same,Lym,6 h,80.2%
same,MCH,6 h,20.9 pg
same,MCHC,6 h,32.9%
same,MCV,6 h,63.7 fL
same,Mono,6 h,2.8%
same,Neu,6 h,14.6%
same,PT,6 h,15.8 s
same,Plat,6 h,131.3 x10_4/uL
same,RBC,6 h,622.4 x10_4/ul
same,Ret,6 h,8.7%
same,WBC,6 h,116 x10_2/uL
same,KIDNEY_L,6 h,1 g
same,KIDNEY_R,6 h,1 g
same,KIDNEY_TOTAL,6 h,1.9 g
same,LIVER,6 h,9.5 g
same,A/G,6 h,1.3
same,ALP,6 h,1418.8 IU/L
same,ALT,6 h,36.6 IU/L
same,AST,6 h,71.6 IU/L
same,BUN,6 h,11.2 mg/dL
same,CRE,6 h,0.2 mg/dL
same,Ca,6 h,11.4 mg/dL
same,Cl,6 h,107.2 meq/L
same,DBIL,6 h,0 mg/dL
same,GLC,6 h,181 mg/dL
same,IP,6 h,9.4 mg/dL
same,K,6 h,4.3 meq/L
same,LDH,6 h,166.2 IU/L
same,Na,6 h,140.4 meq/L
same,PL,6 h,137.4 mg/dL
same,RALB,6 h,3.1 g/dL
same,TBIL,6 h,0.022 mg/dL
same,TC,6 h,78.2 mg/dL
same,TG,6 h,63.8 mg/dL
same,TP,6 h,5.5 g/dL
same,gamma-GTP,6 h,2.4 IU/L
same,TERMINAL_BW,9 h,217.8 g
same,APTT,9 h,22.6 s
same,Bas,9 h,0%
same,Eos,9 h,1%
same,Fbg,9 h,319.4 mg/dL
same,Hb,9 h,13.2 g/dL
same,Ht,9 h,39.5%
same,Lym,9 h,73.8%
same,MCH,9 h,20.6 pg
same,MCHC,9 h,33.4%
same,MCV,9 h,61.8 fL
same,Mono,9 h,2.8%
same,Neu,9 h,22%
same,PT,9 h,16.2 s
same,Plat,9 h,117.1 x10_4/uL
same,RBC,9 h,638.6 x10_4/ul
same,Ret,9 h,6.6%
same,WBC,9 h,87.6 x10_2/uL
same,KIDNEY_L,9 h,0.9 g
same,KIDNEY_R,9 h,1 g
same,KIDNEY_TOTAL,9 h,1.9 g
same,LIVER,9 h,8.9 g
same,A/G,9 h,1.2
same,ALP,9 h,1569.2 IU/L
same,ALT,9 h,39.2 IU/L
same,AST,9 h,72 IU/L
same,BUN,9 h,11.6 mg/dL
same,CRE,9 h,0.1 mg/dL
same,Ca,9 h,11 mg/dL
same,Cl,9 h,107.6 meq/L
same,DBIL,9 h,0 mg/dL
same,GLC,9 h,183.8 mg/dL
same,IP,9 h,8.9 mg/dL
same,K,9 h,3.9 meq/L
same,LDH,9 h,183.2 IU/L
same,Na,9 h,141 meq/L
same,PL,9 h,132.8 mg/dL
same,RALB,9 h,3 g/dL
same,TBIL,9 h,0.022 mg/dL
same,TC,9 h,74 mg/dL
same,TG,9 h,54.6 mg/dL
same,TP,9 h,5.4 g/dL
same,gamma-GTP,9 h,1.6 IU/L
same,TERMINAL_BW,24 h,231.5 g
same,APTT,24 h,19.5 s
same,Bas,24 h,0%
same,Eos,24 h,1%
same,Fbg,24 h,327.8 mg/dL
same,Hb,24 h,13.3 g/dL
same,Ht,24 h,39.7%
same,Lym,24 h,80.2%
same,MCH,24 h,21 pg
same,MCHC,24 h,33.5%
same,MCV,24 h,62.7 fL
same,Mono,24 h,2%
same,Neu,24 h,15.2%
same,PT,24 h,15.6 s
same,Plat,24 h,124.7 x10_4/uL
same,RBC,24 h,633.8 x10_4/ul
same,Ret,24 h,7.6%
same,WBC,24 h,82.4 x10_2/uL
same,KIDNEY_L,24 h,1 g
same,KIDNEY_R,24 h,1 g
same,KIDNEY_TOTAL,24 h,2 g
same,LIVER,24 h,11.2 g
same,A/G,24 h,1.3
same,ALP,24 h,1530.4 IU/L
same,ALT,24 h,39.4 IU/L
same,AST,24 h,67.6 IU/L
same,BUN,24 h,15 mg/dL
same,CRE,24 h,0.1 mg/dL
same,Ca,24 h,11.1 mg/dL
same,Cl,24 h,105.8 meq/L
same,DBIL,24 h,0 mg/dL
same,GLC,24 h,189 mg/dL
same,IP,24 h,7.8 mg/dL
same,K,24 h,4.2 meq/L
same,LDH,24 h,171.2 IU/L
same,Na,24 h,143.4 meq/L
same,PL,24 h,152.4 mg/dL
same,RALB,24 h,3.1 g/dL
same,TBIL,24 h,0.006 mg/dL
same,TC,24 h,79.2 mg/dL
same,TG,24 h,145.2 mg/dL
same,TP,24 h,5.6 g/dL
same,gamma-GTP,24 h,1.4 IU/L

# From ChEMBL document CHEMBL3885861, “Open TG-GATES”
